Here are results for 15 compounds from PMC7534383, “Structure-activity relationship of 7-aryl-2-anilino-pyrrolopyrimidines as Mer and Axl tyrosine kinase inhibitors” (Journal of Enzyme Inhibition and Medicinal Chemistry, 2020).

What all share (type): biochemical
For assay [1], the target named is T1, TYRO3 (Homo sapiens, UniProt Q06418).
T1 sequence (Q06418 41-890): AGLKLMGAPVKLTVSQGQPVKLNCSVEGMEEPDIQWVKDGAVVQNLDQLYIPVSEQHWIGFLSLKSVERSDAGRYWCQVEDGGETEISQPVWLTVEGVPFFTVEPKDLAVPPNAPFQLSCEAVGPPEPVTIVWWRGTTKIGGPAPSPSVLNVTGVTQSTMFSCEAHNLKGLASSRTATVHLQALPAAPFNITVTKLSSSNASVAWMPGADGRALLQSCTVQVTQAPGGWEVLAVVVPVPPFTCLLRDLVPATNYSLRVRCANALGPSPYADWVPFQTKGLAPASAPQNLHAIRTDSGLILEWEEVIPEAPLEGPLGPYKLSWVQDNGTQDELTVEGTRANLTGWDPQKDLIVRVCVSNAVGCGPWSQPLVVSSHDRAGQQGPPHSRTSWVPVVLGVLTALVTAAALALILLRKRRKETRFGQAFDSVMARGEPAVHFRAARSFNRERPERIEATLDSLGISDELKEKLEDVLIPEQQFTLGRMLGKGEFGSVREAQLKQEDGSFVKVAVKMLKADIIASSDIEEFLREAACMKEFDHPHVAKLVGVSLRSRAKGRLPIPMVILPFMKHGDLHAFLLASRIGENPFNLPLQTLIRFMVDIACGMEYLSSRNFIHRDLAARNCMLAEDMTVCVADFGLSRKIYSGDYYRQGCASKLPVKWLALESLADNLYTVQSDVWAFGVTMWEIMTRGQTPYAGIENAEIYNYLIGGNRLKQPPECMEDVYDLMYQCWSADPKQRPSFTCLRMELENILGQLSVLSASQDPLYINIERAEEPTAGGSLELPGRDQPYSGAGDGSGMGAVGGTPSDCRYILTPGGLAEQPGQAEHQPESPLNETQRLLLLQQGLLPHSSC
Put plainly: Kinase assay at Km ATP (Eurofins Discovery), Tyro3. Here is the method: (§1) All kinase assays were carried out at Km ATP by Eurofins Discovery's Kinase Screening and Profiling services (France).

Assay [2] deals with T2, AXL (Homo sapiens, UniProt P30530).
T2 sequence (P30530 26-894): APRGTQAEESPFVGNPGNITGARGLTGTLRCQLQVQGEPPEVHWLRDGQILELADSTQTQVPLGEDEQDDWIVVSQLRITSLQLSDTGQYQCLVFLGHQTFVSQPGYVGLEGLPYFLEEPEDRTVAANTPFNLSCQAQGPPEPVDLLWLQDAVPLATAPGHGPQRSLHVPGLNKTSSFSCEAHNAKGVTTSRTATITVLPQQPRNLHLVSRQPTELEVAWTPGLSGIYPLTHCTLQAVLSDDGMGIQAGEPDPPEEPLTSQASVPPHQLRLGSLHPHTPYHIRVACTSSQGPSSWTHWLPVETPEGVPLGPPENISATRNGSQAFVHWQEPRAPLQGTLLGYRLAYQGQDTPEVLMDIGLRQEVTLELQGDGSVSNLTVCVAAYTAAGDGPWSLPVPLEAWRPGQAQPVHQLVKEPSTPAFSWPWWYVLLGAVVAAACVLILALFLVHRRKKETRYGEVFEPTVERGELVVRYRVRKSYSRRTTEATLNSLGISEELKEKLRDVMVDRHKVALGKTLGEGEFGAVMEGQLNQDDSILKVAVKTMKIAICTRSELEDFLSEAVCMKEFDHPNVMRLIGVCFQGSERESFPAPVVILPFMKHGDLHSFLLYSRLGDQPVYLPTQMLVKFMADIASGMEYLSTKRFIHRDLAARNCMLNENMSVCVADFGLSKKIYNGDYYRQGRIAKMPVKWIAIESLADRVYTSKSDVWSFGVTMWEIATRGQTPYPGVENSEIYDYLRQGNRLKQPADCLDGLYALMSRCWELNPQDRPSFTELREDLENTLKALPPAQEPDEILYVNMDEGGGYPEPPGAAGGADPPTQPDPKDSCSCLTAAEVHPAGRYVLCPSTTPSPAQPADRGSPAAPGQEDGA
Description: Kinase assay at Km ATP (Eurofins Discovery), Axl. To be noted: for IC50: Km ATP. As for the experimental part: as §1

Assay [3] concerns the target T3, MERTK (Homo sapiens, UniProt Q12866).
T3 sequence (Q12866 21-999): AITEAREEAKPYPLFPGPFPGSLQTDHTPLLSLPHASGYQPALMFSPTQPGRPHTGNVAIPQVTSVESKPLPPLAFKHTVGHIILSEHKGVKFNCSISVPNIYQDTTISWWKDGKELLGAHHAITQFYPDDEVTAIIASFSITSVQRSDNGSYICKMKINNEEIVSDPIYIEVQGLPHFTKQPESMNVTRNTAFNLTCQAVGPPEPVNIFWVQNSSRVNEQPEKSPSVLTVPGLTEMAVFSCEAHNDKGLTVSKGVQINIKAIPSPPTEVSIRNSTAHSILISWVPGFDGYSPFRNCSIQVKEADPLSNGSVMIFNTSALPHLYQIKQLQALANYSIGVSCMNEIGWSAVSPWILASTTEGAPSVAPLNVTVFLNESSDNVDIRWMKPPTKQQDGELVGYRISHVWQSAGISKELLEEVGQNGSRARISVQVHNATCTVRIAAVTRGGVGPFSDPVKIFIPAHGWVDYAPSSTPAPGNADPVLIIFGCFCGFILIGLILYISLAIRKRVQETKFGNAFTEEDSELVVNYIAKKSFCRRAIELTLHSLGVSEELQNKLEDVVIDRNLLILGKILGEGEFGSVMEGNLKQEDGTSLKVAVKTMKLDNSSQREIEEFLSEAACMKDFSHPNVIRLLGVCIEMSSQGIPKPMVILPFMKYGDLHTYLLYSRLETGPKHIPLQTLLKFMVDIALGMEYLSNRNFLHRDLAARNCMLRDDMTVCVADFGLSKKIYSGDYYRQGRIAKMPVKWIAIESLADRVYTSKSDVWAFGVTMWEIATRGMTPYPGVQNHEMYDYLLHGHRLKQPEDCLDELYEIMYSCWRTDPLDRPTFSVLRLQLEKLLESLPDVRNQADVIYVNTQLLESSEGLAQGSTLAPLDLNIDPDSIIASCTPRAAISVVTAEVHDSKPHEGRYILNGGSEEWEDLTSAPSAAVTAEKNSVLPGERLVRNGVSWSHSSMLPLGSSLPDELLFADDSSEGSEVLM
Put plainly: Kinase assay at Km ATP (Eurofins Discovery), Mer. The conditions noted are these: for IC50: Km ATP. Here is the method: as §1

Setting [4] is: Table 1, mean values, read-out: IC50 (nM) MERTK.
[5] abbreviates: Table 2, read-out: IC50 (nM) MER.

Like-named read-outs stand apart in the source and are kept apart here. Bounds are passed on as bounds.

As for `COc1ccc(-n2ccc3cnc(Nc4cccc(OC)c4)nc32)cc1` [Compound 2, N-(3-Methoxyphenyl)-7–(4-methoxyphenyl)-7H-pyrrolo[2,3-d]pyrimidin-2-amine], the inhibition – broadly, the percentage by which the read-out fell short of the control – at 1 µM in assay [1] is 38%. For the same compound, the IC50 – broadly, the concentration that inhibits the measured activity by half – in assay [2] (Table 1, mean values) was determined as 1240 nM; in assay [3] (setting [4]), 39 nM.

As to `COc1ccc(-n2ccc3cnc(Nc4ccccc4)nc32)cc1` [Compound 3, 7–(4-Methoxyphenyl)-N-phenyl-7H-pyrrolo[2,3-d]pyrimidin-2-amine], the inhibition at 1 µM in assay [1] was determined as 44%. Besides, the half-inhibitory concentration (IC50) in assay [2] (Table 1, mean values) turned out to be 751 nM; in assay [3] (setting [4]), 95 nM.

In assay [1], `COc1ccc(-n2ccc3cnc(Nc4cccc(-c5ccccc5)c4)nc32)cc1` [Compound 4, N-([1,1′-Biphenyl]-3-yl)-7–(4-methoxyphenyl)-7H-pyrrolo[2,3-d]pyrimidin-2-amine] displayed an inhibition at 1 µM of 12%. The IC50 in assay [2] (Table 1, mean values) is above 3000 nM; in assay [3] (setting [4]) it was above 3000 nM.

`COc1ccc(-n2ccc3cnc(N4CCN(C)CC4)nc32)cc1` [Compound 5, 7–(4-Methoxyphenyl)-2–(4-methylpiperazin-1-yl)-7H-pyrrolo[2,3-d]pyrimidine] registered an inhibition at 1 µM in assay [1] of 0%. In addition, the IC50 is above 1000 nM in assay [2] (Table 1, mean values) and above 1000 nM in assay [3] (setting [4]).

In assay [1], `COc1ccc(-n2ccc3cnc(Nc4ccc(N5CCN(C)CC5)c(OC)c4)nc32)cc1` [Compound 16, N-(3-Methoxy-4–(4-methylpiperazin-1-yl)phenyl)-7–(4-methoxyphenyl)-7H-pyrrolo[2,3-d]pyrimidin-2-amine] showed an inhibition at 1 µM of 27%. Moreover, the IC50 in assay [2] (Table 2) was 104 nM; in assay [3] (setting [5]) it was 15 nM. In addition, the “fold decreased IC50 for Axl compared to 2” value in assay [2] (relative to compound 2) came out at 12 fold. In addition, in assay [3] (relative to compound 2), the “fold decreased IC50 for Mer compared to 2” value came to 2.6 fold.

For the compound `COc1ccc(-n2ccc3cnc(Nc4ccc(NC5CCN(C)CC5)c(OC)c4)nc32)cc1` [Compound 17, 2-Methoxy-N4-(7–(4-methoxyphenyl)-7H-pyrrolo[2,3-d]pyrimidin-2-yl)-N1-(1-methylpiperidin-4-yl)benzene-1,4-diamine], in assay [1], the inhibition at 1 µM amounted to 37%. Besides, the half-maximal inhibitory concentration (IC50) in assay [2] (Table 2) stood at 199 nM; in assay [3] (setting [5]) it was 10 nM.

Regarding `COc1ccc(-n2ccc3cnc(Nc4ccc(N5CCC(N(C)C)C5)c(OC)c4)nc32)cc1` (stereo not shown) [Compound 18, N-(4–(3-(Dimethylamino)pyrrolidin-1-yl)-3-methoxyphenyl)-7–(4-methoxyphenyl)-7H-pyrrolo[2,3-d]pyrimidin-2-amine], the inhibition at 1 µM in assay [1] came out at 30%. For the same compound, the IC50 is 175 nM in assay [2] (Table 2) and 46 nM in assay [3] (setting [5]).

As to `COc1ccc(-n2ccc3cnc(Nc4cc(OC)cc(N5CCN(C)CC5)c4)nc32)cc1` [Compound 25, N-(3-Methoxy-5–(4-methylpiperazin-1-yl)phenyl)-7–(4-methoxyphenyl)-7H-pyrrolo[2,3-d]pyrimidin-2-amine], the inhibition at 1 µM in assay [1] is 86%. In addition, the IC50 came out at 17 nM in assay [2] (Table 2) and 2 nM in assay [3] (setting [5]).

In assay [1], `COc1ccc(-n2ccc3cnc(Nc4cc(CN5CCN(C)CC5)cc(OC)c4)nc32)cc1` [Compound 26, N-(3-Methoxy-5-((4-methylpiperazin-1-yl)methyl)phenyl)-7–(4-methoxyphenyl)-7H-pyrrolo[2,3-d]pyrimidin-2-amine] registered an inhibition at 1 µM of 92%. For the same compound, the IC50 in assay [2] (Table 2) came out at 18 nM; in assay [3] (setting [5]) it was 4 nM.

`COc1ccc(-n2ccc3cnc(Nc4cc(OC)cc(N5CCC(C)(N6CCCC6)CC5)c4)nc32)cc1` [Compound 28, N-(3-Methoxy-5–(4-methyl-4-(pyrrolidin-1-yl)piperidin-1-yl)phenyl)-7–(4-methoxyphenyl)-7H-pyrrolo[2,3-d]pyrimidin-2-amine] displayed an inhibition at 1 µM in assay [1] of 72%. The figures for the half-maximal inhibitory concentration (IC50) in assay [2] (Table 2) and in assay [3] (setting [5]) were 32 nM and 7 nM, respectively.

In turn, `COc1ccc(-n2ccc3cnc(Nc4cc(OC)cc(N5CCCC(N6CCCC6)C5)c4)nc32)cc1` (stereo not shown) [Compound 29, N-(3-Methoxy-5–(3-(pyrrolidin-1-yl)piperidin-1-yl)phenyl)-7–(4-methoxyphenyl)-7H-pyrrolo[2,3-d]pyrimidin-2-amine] showed an inhibition at 1 µM in assay [1] of 49%. The IC50 in assay [2] (Table 2) and in assay [3] (setting [5]) was 31 nM in each case.

The compound `COc1ccc(-n2ccc3cnc(Nc4cc(OC)cc(N5CCN(C6COC6)CC5)c4)nc32)cc1` [Compound 30, N-(3-Methoxy-5–(4-(oxetan-3-yl)piperazin-1-yl)phenyl)-7–(4-methoxyphenyl)-7H-pyrrolo[2,3-d]pyrimidin-2-amine] displayed an inhibition at 1 µM in assay [1] of 39%. Moreover, the values for the half-inhibitory concentration (IC50) in assay [2] (Table 2) and in assay [3] (setting [5]) were 212 nM and 36 nM, respectively.

In assay [1], `COc1ccc(-n2ccc3cnc(Nc4cc(OC)cc(N5CCC6(CCCC6)CC5)c4)nc32)cc1` [Compound 31, N-(3-Methoxy-5–(8-azaspiro[4.5]decan-8-yl)phenyl)-7–(4-methoxyphenyl)-7H-pyrrolo[2,3-d]pyrimidin-2-amine] showed an inhibition at 1 µM of 4%. Further, the IC50 in assay [2] (Table 2) and in assay [3] (setting [5]) was above 3000 nM each time.

`COc1ccc(-n2ccc3cnc(Nc4cc(OC)cc(N5CCC6(CCCO6)CC5)c4)nc32)cc1` [Compound 32, N-(3-Methoxy-5–(1-oxa-8-azaspiro[4.5]decan-8-yl)phenyl)-7–(4-methoxyphenyl)-7H-pyrrolo[2,3-d]pyrimidin-2-amine] displayed an inhibition at 1 µM in assay [1] of 0%. The IC50 in assay [2] (Table 2) was 288 nM.

In assay [1], `COc1cc(Nc2ncc3ccn(-c4ccc(OC(F)(F)F)cc4)c3n2)cc(N2CCC(N3CCCC3)CC2)c1` [Compound 33, N-(3-Methoxy-5–(4-(pyrrolidin-1-yl)piperidin-1-yl)phenyl)-7–(4-(trifluoromethoxy)phenyl)-7H-pyrrolo[2,3-d]pyrimidin-2-amine] returned an inhibition at 1 µM of 23%. Further, the IC50 in assay [2] (Table 3) came out at 57 nM; in assay [3] (Table 3, read-out: IC50 (nM) MER), 9 nM.
